Data published in patent publication US8268862B2, “Sirtuin modulating compounds” (Sirtris Pharmaceuticals, Inc., priority 2007, dated 2012).

Biological target: T1, SIRT1 (Homo sapiens, UniProt Q96EB6)
T1 sequence (Q96EB6 1-747): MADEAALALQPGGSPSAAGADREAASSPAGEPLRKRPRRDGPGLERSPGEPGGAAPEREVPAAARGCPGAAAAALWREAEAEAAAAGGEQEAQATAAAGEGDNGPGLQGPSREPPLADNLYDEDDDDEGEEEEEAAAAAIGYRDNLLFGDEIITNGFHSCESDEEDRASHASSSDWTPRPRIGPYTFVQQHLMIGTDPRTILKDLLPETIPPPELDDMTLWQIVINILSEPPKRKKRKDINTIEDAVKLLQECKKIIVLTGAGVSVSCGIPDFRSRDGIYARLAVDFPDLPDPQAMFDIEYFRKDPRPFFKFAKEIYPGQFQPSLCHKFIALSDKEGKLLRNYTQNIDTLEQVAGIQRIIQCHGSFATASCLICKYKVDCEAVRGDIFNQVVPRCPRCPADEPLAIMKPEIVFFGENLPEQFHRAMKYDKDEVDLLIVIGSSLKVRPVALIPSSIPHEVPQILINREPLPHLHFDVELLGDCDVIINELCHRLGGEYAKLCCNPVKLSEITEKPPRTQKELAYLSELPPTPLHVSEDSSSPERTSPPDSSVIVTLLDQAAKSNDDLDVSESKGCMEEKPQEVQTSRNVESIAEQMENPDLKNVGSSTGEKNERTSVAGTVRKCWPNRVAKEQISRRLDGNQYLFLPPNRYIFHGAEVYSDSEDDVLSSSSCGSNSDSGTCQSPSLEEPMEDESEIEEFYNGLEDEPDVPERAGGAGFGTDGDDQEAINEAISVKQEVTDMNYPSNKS
Assay: mass spectrometry based SIRT1 deacetylation assay (activation)
Assay type: biochemical
Conditions: 0.5 μM peptide substrate, 120 μM βNAD+, 10 nM SIRT1, 25 min at 25° C.; for EC1.5 (concentration of test compound that results in 150% activation of SIRT1): NA = not active in the assay; for Emax: read-out: % FOLD ACT. (percent maximum fold activation of SIRT1)
Source text: A mass spectrometry based assay was used to identify modulators of SIRT1 activity. The mass spectrometry based assay utilizes a peptide having 20 amino acid residues as follows: Ac-EE-K(biotin)-GQSTSSHSK(Ac)NleSTEG-K(5TMR)-EE-NH2 (SEQ ID NO: 1) wherein K(Ac) is an acetylated lysine residue and Nle is a norleucine. The peptide is labeled with the fluorophore 5TMR (excitation 540 nm/emission 580 nm) at the C-terminus. The sequence of the peptide substrate is based on p53 with several modifications. In addition, the methionine residue naturally present in the sequence was replaced with the norleucine because the methionine may be susceptible to oxidation during synthesis and purification.
Test compounds may be added to the reaction as described above. […] After the 25 minute incubation with SIRT1, 10 μL of 10% formic acid is added to stop the reaction. Reactions are sealed and frozen for later mass spec analysis. Determination of the mass of the substrate peptide allows for precise determination of the degree of acetylation (i.e. starting material) as compared to deacetylated peptide (product).
A control for inhibition of sirtuin activity is conducted by adding 1 μL of 500 mM nicotinamide as a negative control at the start of the reaction (e.g., permits determination of maximum sirtuin inhibition). A control for activation of sirtuin activity is conducted using 10 nM of sirtuin protein, with 1 μL of DMSO in place of compound, to determine the amount of deacetylation of the substrate at a given timepoint within the linear range of the assay. This timepoint is the same as that used for test compounds and, within the linear range, the endpoint represents a change in velocity.
For the above assay, SIRT1 protein was expressed and purified as follows. […] The protein was expressed by induction with 1 mM IPTG as an N-terminal His-tag fusion protein at 18° C. overnight and harvested at 30,000×g. Cells were lysed with lysozyme in lysis buffer (50 mM Tris-HCl, 2 mM Tris[2-carboxyethyl]phosphine (TCEP), 10 μM ZnCl2, 200 mM NaCl) and further treated with sonication for 10 min for complete lysis. The protein was purified over a Ni-NTA column (Amersham) and fractions containing pure protein were pooled, concentrated and run over a sizing column (Sephadex S200 26/60 global). The peak containing soluble protein was collected and run on an Ion-exchange column (MonoQ). Gradient elution (200 mM-500 mM NaCl) yielded pure protein. This protein was concentrated and dialyzed against dialysis buffer (20 mM Tris-HCl, 2 mM TCEP) overnight. The protein was aliquoted and frozen at −80° C. until further use.
Sirtuin modulating compounds that activated SIRT1 were identified using the assay described above and are shown below in Table 3. The EC1.5 values represent the concentration of test compounds that result in 150% activation of SIRT1. NT means that the compound was not tested using the indicated assay. NA means that the compound was not active in the indicated assay.

SMILES	EC1.5 (concentration of test compound that results in 150% activation of SIRT1) [NM]	Emax [%]
COCCN1CCN(Cc2cnc3sc(-c4ccccc4NC(=O)c4cccc(-c5cccnc5)c4)nc3c2)CC1 [Compound 58]	884	370
COCCN1CCN(Cc2cnc3sc(-c4ccccc4NC(=O)c4cccc(-c5ccncc5)c4)nc3c2)CC1 [Compound 59]	492	279
O=C(Nc1ccccc1-c1nc2cc(CN3CCNCC3)cnc2s1)c1cc(-c2ccccc2)no1 [Compound 62]	592	231
O=C(Nc1ccccc1-c1nc2ccc(CN3CCNCC3)nc2s1)c1cnc2ccccc2n1 [Compound 66]		336
O=C(Nc1ccccc1-c1nc2cc(CN3CCNCC3)cnc2s1)c1ccc2ncsc2c1 [Compound 70]		298
COc1ccc(-c2ccc(C(=O)Nc3ccccc3-c3nc4cc(CN5CCOCC5)cnc4s3)o2)cc1 [Compound 74]	421	236
O=C(Nc1ccccc1-c1nc2cc(CN3CCNCC3)cnc2s1)c1cccc(-c2nnn[nH]2)c1 [Compound 76]	2790	285
O=C(Nc1ccccc1-c1nc2cc(CN3CCOCC3)cnc2s1)c1cccc(-c2nnn[nH]2)c1 [Compound 77]	3920	204
Cc1nc(-c2cccnc2)sc1C(=O)Nc1ccccc1-c1nc2cc(CN3CCC(N)CC3)cnc2s1 [Compound 78]	565	297
Cc1nc(-c2cccnc2)sc1C(=O)Nc1ccccc1-c1nc2cc(CN3CC[C@@H](N)C3)cnc2s1 [Compound 79]	1220	240
Cc1nc(-c2cccnc2)sc1C(=O)Nc1ccccc1-c1nc2cc(CN3CCOCC3)cnc2s1 [Compound 80]		100
Cc1nc(-c2cccnc2)sc1C(=O)Nc1ccccc1-c1nc2cc(CN3C[C@@H](C)N[C@@H](C)C3)cnc2s1 [Compound 81]		131
Cc1nc(-c2cccnc2)sc1C(=O)Nc1ccccc1-c1nc2cc(CN[C@H]3CCNC3)cnc2s1 [Compound 82]	878	224
Cc1nc(-c2cccnc2)sc1C(=O)Nc1ccccc1-c1nc2cc(CNC(C)C)cnc2s1 [Compound 83]		100
O=C(Nc1ccccc1-c1nc2cc(CN3CC[C@@H](F)C3)cnc2s1)c1cccc(-n2cnnn2)c1 [Compound 84]	4270	166
COCCN1CCN(Cc2cnc3sc(-c4ccccc4NC(=O)c4sc(-c5cccnc5)nc4C)nc3c2)CC1 [Compound 85]	16700	182
COCCN1CCN(Cc2cnc3sc(-c4ccccc4NC(=O)c4cc(-c5ccccc5)ccn4)nc3c2)CC1 [Compound 86]		137
COCCN1CCN(Cc2cnc3sc(-c4ccccc4NC(=O)c4cc(-c5ccccc5)ncn4)nc3c2)CC1 [Compound 87]	955	166
COCCN1CCN(Cc2cnc3sc(-c4ccccc4NC(=O)c4cc(-c5ccccc5)cn4C)nc3c2)CC1 [Compound 88]	14	272
Cc1c(C(=O)Nc2ccccc2-c2nc3cc(CN4CCNCC4)cnc3s2)oc2ccccc12 [Compound 89]	235	239
O=C(Nc1ccccc1-c1nc2cc(CN3CCNCC3)cnc2s1)c1nc2ccccc2s1 [Compound 91]	4410	333
O=C(Nc1ccccc1-c1nc2cc(CN3CCOCC3)cnc2s1)c1nc2ccccc2s1 [Compound 93]	510	236
O=C(Nc1ccccc1-c1nc2cc(CN3CCOCC3)cnc2s1)c1nc2ccccc2o1 [Compound 98]		139

Second part, the molecule after the results:

EC1.5 (concentration of test compound that results in 150% activation of SIRT1) [NM]	Emax [%]	SMILES
144	477	O=C(Nc1ccccc1-c1nc2cc(CN3CCCC3)cnc2s1)c1cccc(-c2ccccc2)n1 [Compound 60]
78	> 500	O=C(Nc1ccccc1-c1nc2cc(CN3CCCC3)cnc2s1)c1cccc(-c2cccc(F)c2)n1 [Compound 61]
859	303	O=C(Nc1ccccc1-c1nc2cc(CN3CCNCC3)cnc2s1)c1cnc2ccccc2n1 [Compound 63]
260	> 500	O=C(Nc1ccccc1-c1nc2cc(CN3CCNCC3)cnc2s1)c1ccc2ccccc2n1 [Compound 64]
	100	O=C(Nc1ccccc1-c1nc2cc(CN3CCOCC3)cnc2s1)c1cnc2ccccc2n1 [Compound 65]
593	295	O=C(Nc1ccccc1-c1nc2cc(CN3CCOCC3)cnc2s1)c1ccc2ccccc2n1 [Compound 68]
687	> 500	O=C(Nc1ccccc1-c1nc2ccc(CN3CCNCC3)nc2s1)c1ccc2ccccc2n1 [Compound 69]
1460	304	O=C(Nc1ccccc1-c1nc2cc(CN3CCNCC3)cnc2s1)c1ccn(-c2ccccc2)n1 [Compound 71]
	100	O=C(Nc1ccccc1-c1nc2cc(CN3CCOCC3)cnc2s1)c1ccnc(-c2ccccc2)n1 [Compound 72]
2970	183	O=C(Nc1ccccc1-c1nc2cc(CN3CCNCC3)cnc2s1)c1ccnc(-c2ccccc2)n1 [Compound 73]
190	221	CN1CCN(Cc2cnc3sc(-c4ccccc4NC(=O)c4ccc5ccccc5n4)nc3c2)CC1 [Compound 90]
2810	163	CN(C)Cc1cnc2sc(-c3ccccc3NC(=O)c3cnc4ccccc4n3)nc2c1 [Compound 92]
150	182	O=C(Nc1ccccc1-c1nc2cc(Cn3ccnc3)cnc2s1)c1ccc2ccccc2n1 [Compound 94]
160	252	O=C(Nc1ccccc1-c1nc2cc(CN3CCCC3)cnc2s1)c1ccc2ccccc2n1 [Compound 95]
1060	162	O=C(Nc1ccccc1-c1nc2cc(CN3CCOCC3)cnc2s1)c1ccc2ccccc2c1 [Compound 96]
3020	186	O=C(Nc1ccccc1-c1nc2cc(CN3CCOCC3)cnc2s1)c1cccc2ccccc12 [Compound 97]
